Assays:
[1] = biological target: T1, 5-hydroxytryptamine receptor 1A (Rattus norvegicus, UniProt P19327); assay: Displacement of [3H]8-OH-DPAT from 5-HT1A receptor in Sprague-Dawley rat cerebral cortex incubated for 30 mins by liquid scintillation counting analysis
T1 sequence (P19327 whole entry): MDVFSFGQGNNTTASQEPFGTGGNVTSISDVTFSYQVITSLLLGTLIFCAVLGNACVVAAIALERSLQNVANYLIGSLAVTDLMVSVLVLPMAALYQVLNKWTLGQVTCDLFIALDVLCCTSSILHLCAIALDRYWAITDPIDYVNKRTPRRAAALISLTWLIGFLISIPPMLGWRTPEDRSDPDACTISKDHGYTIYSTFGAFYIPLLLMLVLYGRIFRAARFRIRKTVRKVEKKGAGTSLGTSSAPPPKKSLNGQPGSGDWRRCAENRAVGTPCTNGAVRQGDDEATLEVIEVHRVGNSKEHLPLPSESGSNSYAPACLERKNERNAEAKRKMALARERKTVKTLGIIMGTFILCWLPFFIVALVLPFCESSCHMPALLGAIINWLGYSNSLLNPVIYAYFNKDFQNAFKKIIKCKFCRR

[2] = biological target: 5-hydroxytryptamine receptor 2A (Rattus norvegicus, UniProt P14842); assay: Displacement of [3H] ketanserin from 5-HT2A receptor in Sprague-Dawley rat cerebral cortex incubated for 30 mins by liquid scintillation counting analysis
[3] = biological target: T2, 5-hydroxytryptamine receptor 2C (Rattus norvegicus, UniProt P08909); assay: Displacement of [3H]mesulergine from 5-HT2C receptor in Sprague-Dawley rat cerebral cortex incubated for 15 mins in presence of spiperone by liquid scintillation counting analysis
T2 sequence (P08909 whole entry): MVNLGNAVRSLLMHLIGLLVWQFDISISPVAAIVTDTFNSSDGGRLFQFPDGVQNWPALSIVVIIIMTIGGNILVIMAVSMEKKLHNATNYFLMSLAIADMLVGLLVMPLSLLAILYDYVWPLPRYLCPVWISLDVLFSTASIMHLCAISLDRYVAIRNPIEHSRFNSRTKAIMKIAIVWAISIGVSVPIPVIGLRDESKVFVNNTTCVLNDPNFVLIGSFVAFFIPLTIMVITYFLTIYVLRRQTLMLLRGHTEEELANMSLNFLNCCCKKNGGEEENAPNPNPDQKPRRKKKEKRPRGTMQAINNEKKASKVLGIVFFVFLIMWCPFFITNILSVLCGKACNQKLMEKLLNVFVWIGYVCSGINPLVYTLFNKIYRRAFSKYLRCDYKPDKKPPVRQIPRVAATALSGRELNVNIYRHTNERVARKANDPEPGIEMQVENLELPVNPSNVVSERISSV

[4] = biological target: Histamine H1 receptor (Cavia porcellus, UniProt P31389); assay: Displacement of [3H]mepyramine from histamine H1 receptor in guinea pig cerebellum incubated for 60 mins by liquid scintillation counting analysis
[5] = biological target: D(2) dopamine receptor (Rattus norvegicus, UniProt P61169); assay: Displacement of [3H]spiperone from dopamine D2 receptor in Sprague-Dawley rat striatum incubated for 30 mins by liquid scintillation counting analysis
[6] = biological target: 5-hydroxytryptamine receptor 6 (Homo sapiens, UniProt P50406); assay: Displacement of [3H]lysergic acid diethylamide from human recombinant 5-HT6 receptor expressed in CHO cell membranes for 30 mins by liquid scintillation counting analysis
[7] = biological target: T3, Adrenergic receptor alpha-1 (Rattus norvegicus, UniProt P15823+P23944+P43140); assay: Displacement of [3H]prazosin from adrenergic alpha1 receptor in Sprague-Dawley rat cerebral cortex incubated for 60 mins by liquid scintillation counting analysis
T3 sequence (P15823 whole entry): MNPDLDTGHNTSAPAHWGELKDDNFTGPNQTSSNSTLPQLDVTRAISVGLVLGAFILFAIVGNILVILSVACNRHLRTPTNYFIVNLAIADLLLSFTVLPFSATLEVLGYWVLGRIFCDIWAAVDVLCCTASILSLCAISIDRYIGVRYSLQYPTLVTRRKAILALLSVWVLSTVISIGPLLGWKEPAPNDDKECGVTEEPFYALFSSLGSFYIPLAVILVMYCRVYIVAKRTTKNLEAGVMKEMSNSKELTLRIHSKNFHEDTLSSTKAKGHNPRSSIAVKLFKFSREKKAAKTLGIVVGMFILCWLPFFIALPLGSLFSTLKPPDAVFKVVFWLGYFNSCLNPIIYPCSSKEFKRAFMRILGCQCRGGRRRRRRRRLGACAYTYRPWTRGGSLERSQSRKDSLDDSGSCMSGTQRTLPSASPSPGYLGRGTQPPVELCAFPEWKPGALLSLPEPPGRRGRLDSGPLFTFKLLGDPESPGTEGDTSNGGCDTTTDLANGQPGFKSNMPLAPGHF
T3 sequence (P23944 whole entry): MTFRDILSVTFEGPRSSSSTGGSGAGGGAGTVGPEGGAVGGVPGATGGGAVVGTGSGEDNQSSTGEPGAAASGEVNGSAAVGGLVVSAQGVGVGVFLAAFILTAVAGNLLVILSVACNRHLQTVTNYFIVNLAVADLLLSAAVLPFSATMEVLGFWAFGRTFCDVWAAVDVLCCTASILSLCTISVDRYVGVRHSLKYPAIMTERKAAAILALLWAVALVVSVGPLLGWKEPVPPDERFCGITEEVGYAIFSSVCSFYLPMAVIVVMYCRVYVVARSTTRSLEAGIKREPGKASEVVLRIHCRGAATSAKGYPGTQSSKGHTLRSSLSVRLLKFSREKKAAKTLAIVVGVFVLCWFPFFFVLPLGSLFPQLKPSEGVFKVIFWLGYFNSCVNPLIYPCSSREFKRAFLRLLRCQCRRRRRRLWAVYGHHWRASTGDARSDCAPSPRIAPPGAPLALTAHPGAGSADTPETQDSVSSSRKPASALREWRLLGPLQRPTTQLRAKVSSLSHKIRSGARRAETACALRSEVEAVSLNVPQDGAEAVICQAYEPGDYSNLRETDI
T3 sequence (P43140 whole entry): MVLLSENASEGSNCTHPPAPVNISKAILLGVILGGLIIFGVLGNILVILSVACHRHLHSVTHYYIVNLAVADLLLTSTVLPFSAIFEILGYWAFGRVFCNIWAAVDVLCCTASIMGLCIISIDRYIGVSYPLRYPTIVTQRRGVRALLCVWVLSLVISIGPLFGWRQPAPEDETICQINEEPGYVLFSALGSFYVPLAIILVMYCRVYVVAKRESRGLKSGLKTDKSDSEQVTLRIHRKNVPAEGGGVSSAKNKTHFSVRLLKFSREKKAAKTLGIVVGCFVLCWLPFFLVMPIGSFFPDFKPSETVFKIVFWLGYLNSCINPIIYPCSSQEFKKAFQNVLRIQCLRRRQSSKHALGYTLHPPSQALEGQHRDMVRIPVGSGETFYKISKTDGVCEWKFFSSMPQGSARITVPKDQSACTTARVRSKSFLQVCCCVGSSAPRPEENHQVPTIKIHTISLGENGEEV

[8] = Induction of catalepsy in po dosed Chinese Kun Ming mouse assessed as increase in unwanted extrapyramidal motor disturbances measured for 60 seconds; format: organism-based; conditions: in vivo, 1 min
[9] = test system: Mus musculus; assay: Inhibition of MK-801 induced hyperactivity in po dosed Chinese Kun Ming mouse administered for 60 mins followed by MK-801 challenge and measured for 90 mins; format: functional
[10] = test system: Mus musculus; assay: Inhibition of apomorphine-induced climbing behavior in po dosed Chinese Kun Ming mouse administered for 30 mins followed by apomorphine challenge and measured for 10 to 30 mins; format: functional
[11] = Therapeutic index, ratio of ED50 for induction of catalepsy in po dosed Chinese Kun Ming mouse to ED50 for inhibition of apomorphine-induced climbing behavior in po dosed Chinese Kun Ming mouse; format: organism-based; conditions: in vivo, read-out: Ratio ED50
[12] = Therapeutic index, ratio of ED50 for induction of catalepsy in po dosed Chinese Kun Ming mouse to ED50 for inhibition of MK-801 induced hyperactivity in po dosed Chinese Kun Ming mouse; format: organism-based; conditions: in vivo, read-out: Ratio ED50
[13] = Toxicity in po dosed Chinese Kun Ming mouse assessed as lethality after 24 hrs; format: organism-based; conditions: in vivo

5-hydroxytryptamine receptor 2A, sequence (P14842 whole entry): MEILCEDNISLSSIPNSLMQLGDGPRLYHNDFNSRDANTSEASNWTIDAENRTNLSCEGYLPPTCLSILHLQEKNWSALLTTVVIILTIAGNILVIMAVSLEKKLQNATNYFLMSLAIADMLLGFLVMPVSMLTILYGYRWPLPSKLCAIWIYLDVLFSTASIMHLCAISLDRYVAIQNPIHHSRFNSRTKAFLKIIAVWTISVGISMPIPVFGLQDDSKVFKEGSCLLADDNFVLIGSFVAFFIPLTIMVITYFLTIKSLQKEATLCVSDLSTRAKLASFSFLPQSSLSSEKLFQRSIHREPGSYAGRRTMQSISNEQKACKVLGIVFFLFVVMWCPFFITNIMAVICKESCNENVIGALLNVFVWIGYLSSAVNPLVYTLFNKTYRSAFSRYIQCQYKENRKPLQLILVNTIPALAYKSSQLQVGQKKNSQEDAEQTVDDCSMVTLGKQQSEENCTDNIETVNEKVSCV
Histamine H1 receptor, sequence (P31389 whole entry): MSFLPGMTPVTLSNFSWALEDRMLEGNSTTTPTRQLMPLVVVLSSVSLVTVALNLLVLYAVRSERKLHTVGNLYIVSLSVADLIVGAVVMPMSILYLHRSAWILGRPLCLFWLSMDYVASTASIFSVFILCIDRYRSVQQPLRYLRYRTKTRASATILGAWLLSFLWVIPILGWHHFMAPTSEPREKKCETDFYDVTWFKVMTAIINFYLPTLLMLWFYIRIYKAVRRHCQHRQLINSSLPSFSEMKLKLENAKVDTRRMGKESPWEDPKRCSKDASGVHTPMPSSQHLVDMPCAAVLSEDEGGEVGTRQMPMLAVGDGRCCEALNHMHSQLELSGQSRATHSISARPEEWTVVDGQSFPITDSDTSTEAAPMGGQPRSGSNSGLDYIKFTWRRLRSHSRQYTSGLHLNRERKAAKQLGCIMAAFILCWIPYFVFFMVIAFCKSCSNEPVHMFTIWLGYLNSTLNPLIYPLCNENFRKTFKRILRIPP
5-hydroxytryptamine receptor 6, sequence (P50406 whole entry): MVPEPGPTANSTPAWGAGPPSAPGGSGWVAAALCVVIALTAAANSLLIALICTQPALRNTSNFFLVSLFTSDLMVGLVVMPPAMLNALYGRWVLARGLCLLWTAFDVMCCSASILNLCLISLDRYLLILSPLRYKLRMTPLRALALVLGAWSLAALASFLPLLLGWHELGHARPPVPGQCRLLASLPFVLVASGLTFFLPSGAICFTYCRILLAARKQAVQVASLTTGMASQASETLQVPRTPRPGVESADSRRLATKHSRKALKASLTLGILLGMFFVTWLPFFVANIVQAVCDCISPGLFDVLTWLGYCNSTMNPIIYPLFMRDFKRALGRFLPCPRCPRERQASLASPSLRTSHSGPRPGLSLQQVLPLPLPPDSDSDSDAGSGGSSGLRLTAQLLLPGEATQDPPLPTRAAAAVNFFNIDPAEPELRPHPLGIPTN
D(2) dopamine receptor, sequence (P61169 whole entry): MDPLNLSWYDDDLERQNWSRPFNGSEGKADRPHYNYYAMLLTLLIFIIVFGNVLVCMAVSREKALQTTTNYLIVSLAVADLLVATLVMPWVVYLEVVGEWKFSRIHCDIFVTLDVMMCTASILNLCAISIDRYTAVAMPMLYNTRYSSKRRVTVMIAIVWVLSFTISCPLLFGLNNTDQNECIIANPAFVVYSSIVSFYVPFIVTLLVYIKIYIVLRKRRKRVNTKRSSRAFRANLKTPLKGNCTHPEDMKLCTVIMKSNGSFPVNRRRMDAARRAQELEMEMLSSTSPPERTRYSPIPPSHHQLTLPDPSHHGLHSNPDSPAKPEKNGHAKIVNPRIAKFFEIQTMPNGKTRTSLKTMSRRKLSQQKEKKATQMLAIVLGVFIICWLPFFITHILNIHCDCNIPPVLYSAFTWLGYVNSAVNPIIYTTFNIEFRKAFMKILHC

Compound | Ki [1] | Ki [2] | Ki [3] | Ki [4] | Ki [5] | Ki [6] | Ki [7] | ED50 [8] | ED50 [9] | ED50 [10] | selectivity ratio [11] | selectivity ratio [12] | LD50 at 24 h [13]
O=c1ccc(OCCCN2CCC(c3noc4cc(F)ccc34)CC2)nn1-c1cccc(Cl)c1Cl | 9.3 nM | 0.5 nM | 177 nM | 16.6 nM | 0.2 nM | 113 nM | 118 nM |  |  |  |  |  | 
O=c1ccc(OCCCN2CCC(c3noc4cc(F)ccc34)CC2)nn1-c1cc(F)ccc1F | 9 nM | 11.2 nM | 9.1 nM | 115 nM | 6.1 nM | 3.8 nM | 337 nM |  |  |  |  |  | 
O=C(CCCN1CCC(O)(c2ccc(Cl)cc2)CC1)c1ccc(F)cc1 [HALOPERIDOL] |  |  |  |  |  |  |  | 0.56 mg/kg | 0.19 mg/kg | 0.18 mg/kg | 3.11 | 2.95 | 
Cc1nc2n(c(=O)c1CCN1CCC(c3noc4cc(F)ccc34)CC1)CCCC2 [RISPERIDONE] |  |  |  |  |  |  |  | 0.38 mg/kg | 0.018 mg/kg | 0.02 mg/kg |  |  | 
O=c1ccc(OCCCN2CCC(c3noc4cc(F)ccc34)CC2)nn1-c1cc(Cl)ccc1Cl |  | 0.7 nM | 1 nM | 186 nM | 2.7 nM | 11.7 nM | 147 nM |  |  |  |  |  | 
O=c1ccc(OCCCN2CCC(c3noc4cc(F)ccc34)CC2)nn1-c1c(F)cccc1F | 5.9 nM | 0.3 nM | 1580 nM | 2000 nM | 0.5 nM | 0.5 nM | 1098 nM | 23.82 mg/kg | 0.3 mg/kg | 0.47 mg/kg | 50.7 | 79.4 | > 2000 mg/kg

— ChEMBL document CHEMBL3875166, “Synthesis and biological evaluation of new 6-hydroxypyridazinone benzisoxazoles: Potential multi-receptor-targeting atypical antipsychotics” (Eur J Med Chem, 2016)
